For 16 compounds, GI50 and TGI results are on record in PubChem BioAssay (NCI).

Test systems include MDA-MB-231 breast; A549 NSCLC; LOX IMVI melanoma; HS 578T breast; A498 renal; PC-3 prostate; U251 CNS; OVCAR-5 ovarian; COLO 205 colon; T-47D breast.
Common to all, as to assay: NCI tumour cell line growth inhibition, 48 h

“And” between values parts separate entries of the source, which are not always exact repeats. Identical values can stand only once.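 Growth conditions: 96-well plates. Treatment: test compound, 48 hours, 5 concentrations. Analysis: linear interpolation between bracketing concentrations; unreached endpoints set to highest concentration. GI50 is the concentration that inhibits growth by half. Definition used: TGI = concentration required for complete inhibition of growth.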

Consider `Cc1ccc(Sc2oc(-c3ccc(C)cc3)nc2[P+](c2ccccc2)(c2ccccc2)c2ccccc2)cc1`, for which the GI50 was 0.28 µM in the test on MDA-MB-231 breast; 0.305 µM in the test on A549 NSCLC; 0.166 µM with LOX IMVI melanoma; 0.378 µM in the test with HS 578T breast; 0.152 µM in the test on A498 renal; 0.305 µM in the test on PC-3 prostate. Moreover, the GI50 with U251 CNS was 0.303 µM; in the test with OVCAR-5 ovarian it was 0.416 µM. Also, the TGI in the test with MDA-MB-231 breast turned out to be 1.03 µM; with A549 NSCLC, 1.24 µM; with LOX IMVI melanoma, 0.323 µM; with HS 578T breast, 1.98 µM; with A498 renal, 0.842 µM; in the test on PC-3 prostate, 1.34 µM. Moreover, the TGI in the test with U251 CNS came out at 1.41 µM; in the test with OVCAR-5 ovarian, 1.59 µM.

As to `C#C[C@H]1CCCCCC1O` (some centres not stated), the TGI in the test on A549 NSCLC, in the test on LOX IMVI melanoma, with COLO 205 colon, in the test with A498 renal, in the test on U251 CNS and in the test on OVCAR-5 ovarian was greater than 100 µM each time.

Regarding `Cc1cc(C)nc(NS(=O)(=O)c2ccc(NC(=O)c3cccn4c(=O)c5ccccc5nc34)cc2)n1`, the TGI in the test on A549 NSCLC was greater than 100 µM; with LOX IMVI melanoma, 91.8 µM; in the test with COLO 205 colon, greater than 100 µM; in the test on U251 CNS, greater than 100 µM; in the test on OVCAR-5 ovarian it was greater than 100 µM.

Turning to `Nc1ccc(C(=O)N/C(=C\c2cccc([N+](=O)[O-])c2)c2nc3ccc(Cl)cc3[nH]2)cc1`, the TGI with A549 NSCLC, in the test with COLO 205 colon, in the test with U251 CNS and in the test on OVCAR-5 ovarian was greater than 100 µM in each case.

`Cc1nc2c(sc(=S)n2-c2ccccc2)c2nc3ccccc3n12`: the TGI with LOX IMVI melanoma, with COLO 205 colon, in the test on U251 CNS and in the test with OVCAR-5 ovarian was greater than 100 µM in each case.

Consider `NC(=O)C12CC3CC(CC(Br)(C3)C1)C2`, for which the TGI in the test with A549 NSCLC, in the test on LOX IMVI melanoma, with A498 renal, with U251 CNS and with OVCAR-5 ovarian was greater than 100 µM in each case.

As to `Cc1ccc(NC(=O)CC2SC(N)=NC2=O)cc1C` (configuration not stated), the TGI with A549 NSCLC, with LOX IMVI melanoma, with COLO 205 colon, with U251 CNS and in the test with OVCAR-5 ovarian was greater than 100 µM each time.

Regarding `O=c1c(-c2ccccc2)coc2cc(OC/C(=N/O)c3ccc(F)cc3)ccc12`, the GI50 was 7.87 µM in the test on T-47D breast; 19.6 µM in the test with MDA-MB-231 breast; 13.6 µM in the test on A549 NSCLC; 44.1 µM with LOX IMVI melanoma; 18.9 µM in the test on COLO 205 colon; 19 µM with PC-3 prostate. Also, the GI50 is 18.2 µM in the test on U251 CNS and 18.1 µM with OVCAR-5 ovarian. The TGI in the test on T-47D breast was 68.5 µM; with MDA-MB-231 breast, 43.4 µM; in the test on A549 NSCLC, 35.9 µM; with LOX IMVI melanoma it was greater than 100 µM; in the test on COLO 205 colon, 50.7 µM; in the test with PC-3 prostate it was 45.9 µM. Further, the TGI with U251 CNS came to 36.8 µM; in the test with OVCAR-5 ovarian, 43.8 µM.

Consider `COc1cccc2c1[C@H]1CO[C@H]3C4C[C@H](C(=O)O)C([C@@H](C2)N13)N4C` (some centres not stated), for which the GI50 was 10.1 µM in the test on A549 NSCLC, 0.515 µM in the test on COLO 205 colon and 0.5 µM with U251 CNS. Further, the TGI was 99 µM in the test with A549 NSCLC; 3.29 µM and > 23.9 µM with LOX IMVI melanoma; 2.58 µM and 2.41 µM with COLO 205 colon; 0.656 µM in the test on HS 578T breast; 5.52 µM in the test with U251 CNS; 4.94 µM and > 24.3 µM in the test on OVCAR-5 ovarian.

`O=C(CCc1nc(=S)[nH][nH]1)Nc1cccc(C(F)(F)F)c1`: the TGI in the test on A549 NSCLC, in the test with LOX IMVI melanoma, in the test with COLO 205 colon, with A498 renal, in the test with U251 CNS and with OVCAR-5 ovarian was greater than 100 µM in each case.

On to `CCC[CH2][Sn]([CH2]CCC)([O]C(=O)/C=C/c1ccccc1F)[O]C(=O)/C=C/c1ccccc1F`, for which the GI50 in the test on A549 NSCLC was 1.88 µM; in the test on LOX IMVI melanoma, 0.289 µM; in the test with COLO 205 colon, 0.907 µM; in the test on A498 renal, 1.09 µM; with U251 CNS, 0.511 µM; in the test on OVCAR-5 ovarian, 1.5 µM. The TGI in the test with A549 NSCLC was found to be 3.91 µM; in the test with LOX IMVI melanoma it was 0.906 µM; with COLO 205 colon, 2.41 µM; in the test with A498 renal, 2.29 µM; with U251 CNS it was 1.41 µM; in the test with OVCAR-5 ovarian, 2.83 µM.

As for `COCCOCOC(C)(C)[C@H](CCOC(C)=O)O[Si](c1ccccc1)(c1ccccc1)C(C)(C)C`, the TGI was greater than 100 µM in the test on A549 NSCLC; 27.6 µM in the test on LOX IMVI melanoma; 13.7 µM in the test on COLO 205 colon; 68.4 µM in the test with A498 renal; 30.6 µM in the test with U251 CNS; greater than 100 µM with OVCAR-5 ovarian.

In the case of `Clc1ccccc1NN(Cc1ccncc1)c1ccccc1Cl`, the TGI in the test with MDA-MB-231 breast came out at 27.8 µM; with A549 NSCLC it was 29.8 µM; with LOX IMVI melanoma, 30.3 µM; in the test with COLO 205 colon it was 32 µM; in the test on HS 578T breast it was 48.6 µM; in the test with A498 renal, 33.7 µM. Further, the TGI was found to be 28.9 µM with PC-3 prostate, 26.4 µM in the test with U251 CNS and 38.4 µM with OVCAR-5 ovarian.

Regarding `COc1ccc(Cc2nc3ccccc3s2)cc1OC`, the TGI amounted to 61.8 µM in the test on A549 NSCLC; 27.7 µM in the test on COLO 205 colon; 49.5 µM in the test with A498 renal; 27.7 µM in the test on U251 CNS; 37.6 µM in the test with OVCAR-5 ovarian.

Turning to `CCSc1nc(N)c(C#N)c(-c2ccco2)c1C#N`, the GI50 with MDA-MB-231 breast was greater than 100 µM; in the test with A549 NSCLC, 41.4 µM; in the test with LOX IMVI melanoma it was 17.1 µM; in the test on COLO 205 colon, 30.2 µM; in the test with HS 578T breast, 33.9 µM; in the test with A498 renal, 26.5 µM. For the same compound, the GI50 with PC-3 prostate is 22.3 µM; with U251 CNS, 22.7 µM; with OVCAR-5 ovarian, greater than 100 µM. Besides, the TGI with MDA-MB-231 breast is greater than 100 µM; in the test with A549 NSCLC, greater than 100 µM; with LOX IMVI melanoma, 37.1 µM; in the test with COLO 205 colon, greater than 100 µM; in the test with HS 578T breast it was greater than 100 µM; with A498 renal, greater than 100 µM. For the same compound, the TGI with PC-3 prostate is greater than 100 µM; with U251 CNS it was 83.7 µM; in the test with OVCAR-5 ovarian, greater than 100 µM.

Take `Nc1ncnc2c1nnn2C1C=C(CO)C(O)C1O` (configuration not stated): the TGI with A549 NSCLC is greater than 100 µM; in the test with LOX IMVI melanoma, greater than 55.3 µM; in the test on COLO 205 colon, greater than 50.6 µM; in the test on A498 renal, greater than 100 µM; in the test on U251 CNS, greater than 100 µM; in the test with OVCAR-5 ovarian it was greater than 100 µM.
